US10722532B2, “Polymer-conjugated METAP2 inhibitors, and therapeutic methods of use thereof” (SynDevRx, Inc., priority 2010, dated 2020)
Converted amounts (≈) assume the structure as drawn. Read-outs that look alike come from different tables or passages of the source.

How the values were obtained:
Cathepsin B = molecular target: T1, Cathepsin B (Bos taurus, UniProt P07688); assay: Cathepsin B release of fumagillol analogs from HPMA conjugates; assay type: in vitro ADME; details: 40 nM Cathepsin B, approximately 2.5 mg/mL test agent, pH 5.5 or 6.8, 37° C., 0-24 hour, LC/MS/MS
T1 construct: purchased Sigma C6286
Method: Cathepsin B (Sigma Cat # C6286 Lot #025K7672) was diluted to a 10× concentration in activation buffer consisting of approximately 400 nM enzyme, 30 mM DTT, 15 mM EDTA and acetate buffer, pH=5.5 for 15 minutes at room temperature.
The HPMA conjugates were made into a 10× stock solution in pH 5.5 buffer. The final reaction was performed by diluting the enzyme and substrate 10 fold into either buffer at pH=5.5 or pH=6.8. The final enzymatic reaction consisted of 40 nM Cathepsin B, approximately 2.5 mg/mL test agent, and buffer at 37° C. The reaction was stopped at 0, 2, 6, and 24 hour. To stop the reaction, 3 volumes of ice-cold methanol containing propranolol internal standard (at 1.0 μM) was added and left on ice. The samples were then analyzed by LC/MS/MS.

A549 cells [1] = assay: A549 human non-small cell lung carcinoma cell viability assay (CellTiter-Glo); assay type: cell-based; details: small molecules, 72 hours exposure
Method: (§1) Test compounds, small molecules or polymer conjugates, were dissolved in dimethyl sulfoxide to a stock concentration of 5 mg/mL. The test agents were then diluted to an intermediate concentration at 200 μg/mL in 10% DMSO. Further dilutions were completed serially 3-fold in 10% DMSO to produce 12 decreasing concentrations for in-vitro analysis. To achieve the target concentrations of the in-vitro assays, […] of the intermediate drug preparation was delivered to the cells (seeded in a volume of 50 μL). The final DMSO concentration for the tests was 0.2% for all doses of test agent.
(§2) Cells were exposed to twelve increasing concentrations of formulated test agent from 2×10^−6 to 4.0 μg/mL for 72 hours. Following 72 hour exposure, 25 μL of CellTiter-Glo® Reagent was added to each well. The plates were incubated for 60 minutes at 37° C. in a humidified incubator. After incubation, luminescence was recorded using the Molecular Devices AnalystGT multi-mode reader.
(§3) Data are expressed as the percent cell growth of the untreated (vehicle) control calculated from the luminescence signals. The surviving fraction of cells is determined by dividing the mean luminescence values of the test agents by the mean luminescence values of untreated control. The inhibitory concentration value for the test agent(s) and control were estimated using Prism 5 software (GraphPad Software, Inc.) by curve-fitting the data using the non-linear regression analysis.
The human tumor cell lines A549 and HCT-116 were obtained from American Type Culture Collection (Manassas, Va.). The Human umbilical vein epithelial cells (HUVEC) were obtained from Lonza (Basel, Switzerland). The A549 cells were maintained RPMI 1640 w/L-glut supplemented with 5% FBS. The HCT-116 cells were maintained in McCoy's 5a supplemented with 5% FBS. The HUVEC line was grown in Endothelial Growth Medium with supplements and growth factors (BBE, hydrocortisone, hEGF, FBS and gentamicin/amphotericin-B). All cells were house in an atmosphere of 5% CO2 at 37° C. Cells were dissociated with 0.05% Trypsin and 0.02% EDTA.
(§4) The human tumor cell line A549 was obtained from American Type Culture Collection (Manassas, Va.). The A549 cells were maintained RPMI 1640 w/L-glut supplemented with 5% FBS. A549 cells were seeded at 500 cells per well 24 hours prior to test agent exposure in a volume of 50 μL. The cells were housed in an atmosphere of 5% CO2 at 37° C. Cells were dissociated with 0.05% Trypsin and 0.02% EDTA.

[2] = tested on: A549 tumor cells vs normal HUVEC cells; assay: A549/HUVEC selectivity (ratio of IC50s); assay type: cell-based, human
HCT-116 cells = assay: HCT-116 human colon tumor cell viability assay (CellTiter-Glo); assay type: cell-based; details: small molecules, 72 hours exposure
Method: as §1, §3
as §4, with “cell lines” for “cell line”, “A549 and HCT-116 were” for “A549 was”, “The HCT-116” for “The A549”, “maintained in McCoy's 5a” for “maintained RPMI 1640 w/L-glut”, “FBS. HCT-116” for “FBS. A549”
as §2, with “2.3×10^−6” for “2×10^−6”, “4.02” for “4.0”

HUVEC cells = assay: Human umbilical vein epithelial cell viability assay (CellTiter-Glo); assay type: cell-based; details: small molecules, 72 hours exposure
Method: as §1, §3
The Human umbilical vein epithelial cells (HUVEC) were obtained from Lonza (Basel, Switzerland). The HUVEC line was grown in Endothelial Growth Medium with supplements and growth factors (BBE, hydrocortisone, hEGF, FBS and gentamicin/amphotericin-B). All cells were housed in an atmosphere of 5% CO2 at 37° C. Cells were dissociated with 0.05% Trypsin and 0.02% EDTA.
as §2, with “HUVEC cells were seeded at 1000 cells per well 24 hours prior to test agent exposure in a volume of […]. Cells” for “Cells”, “2.3×10^−6” for “2×10^−6”, “4.02” for “4.0”, “[…]” for “25 μL”, “CellTiter-Glog®” for “CellTiter-Glo®”

A549 cells [3] = assay type: in vitro ADME, human
Method: Cells were treated as in Example 51 except that at the end of 72 hour exposure to test agent, the cells were frozen (−70° C.) and stored for subsequent evaluation by LC/MS.

B16-F10 tumor cells = assay: In vivo B16-F10 murine melanoma, lung metastases counts; set-up: species or system C57B16 female mice; details: 30 mg/kg, qod; sacrificed after 15 days
Method: C57B16 female mice (N=8) were injected (tail vein) with 1×10^5 B16-F10 tumor cells. After one day, mice were treated with polymer conjugates as solutions in saline (IV administration, q4d, four doses except that in one group O-7175 was administered as a single dose on day 1). TNP-470 was used as a positive control, saline as a negative control. Mice were sacrificed after 15 days. Treatment outcomes were assessed by counting lung metastases.

[4] = for T ½: buffer; for Natural Rate Constant: 37° C., 5 μM
Method: At the appropriate time points, a 50 μL sample was withdrawn and diluted with three volumes of methanol containing propranolol as an internal standard (one solution was made for the entire study). The concentration of carbamoylfumagillol in the solution was analyzed by LC/MS/MS over seven days.

[5] = in man; as metabolite of TNP-470; cited from earlier work

Compound	products released by Cathepsin B (Cathepsin B)	A549 IC50 Average (A549 cells [1])	A549/HUVEC IC50 ratio [2]	HCT116 IC50 Average (HCT-116 cells)	HUVEC IC50 Average (HUVEC cells)	further results
poly(HPMA-co-MA-GFLG-NHCH2CH2N(Me)CH2C(O)NHC(O)2-fumagill-6-yl)	fumagillol, carbamoylfumagillol, and fumagil-6-yl (2-aminoethyl)methylcarbamate					
CO[C@@H]1[C@H](OC(=O)N[C@@H](C(N)=O)C(C)C)CC[C@]2(CO2)[C@H]1[C@@]1(C)O[C@@H]1CC=C(C)C [Compound O-7177]		0.215 ng/mL	2.14	0.236 ng/mL	0.101 ng/mL	
poly[HPMA-co-MA-GFLG-N-(6-aminohexyl)carbamoylfumagillol]	N-(6-aminohexyl)carbamoylfumagillol and fumagil-6-yl {6-[(aminoacetyl)amino]hexyl}carbamate					Metabolites identified from the treated cells (A549 cells [3]): N-(6-aminohexyl)carbamoylfumagillol,fumagill-6-yl {6-[(aminoacetyl)amino]hexyl}carbamate, and the epoxide hydrolysis product, (35′,7aR)-7a-(hydroxymethyl)-4-methoxy-3-methyl-2-(3-methylbut-2-en-1-yl)octahydro-1-benzofuran-3-ol-5-yl 6-aminohexyl carbamate
CO[C@@H]1[C@H](OC(=O)NC(=O)CCl)CC[C@]2(CO2)[C@H]1[C@@]1(C)O[C@@H]1CC=C(C)C [TNP-470, chloroacetylcarbamoylfumagillol]			58.53			IC50 (A549 cells [1]; Homo sapiens, A549): 8.97 ng/mL (≈ 22.3 nM); IC50 (HCT-116 cells; Homo sapiens, HCT-116, read-out: HCT116 IC50 Average): 2.64 ng/mL (≈ 6.57 nM); Metastases Counts (B16-F10 tumor cells): 39.5; IC50 (HUVEC cells; Homo sapiens, HUVEC): 0.153 ng/mL (≈ 0.381 nM)
poly(HPMA-co-MA-GFLG-N(Me)CH2CH2N(Me)CH2C(O)NHC(O)2-fumagill-6-yl)	fumagillol, carbamoylfumagillol, fumagil-6-yl methyl[2-(methylamino)ethyl]carbamate, and ethyl {2-[(aminoacetyl)(methyl)amino]ethyl}methylcarbamate					
CO[C@@H]1[C@H](OC(N)=O)CC[C@]2(CO2)[C@H]1[C@@]1(C)O[C@@H]1CC=C(C)C [Carbamoylfumagillol]		2.89 ng/mL		1.035 ng/mL	0.086 ng/mL	T ½ ([4]; pH 4): 5.38 days; T ½ ([4]; pH 5.3): 17 days; T ½ ([4]; pH 6.7): 30.3 days; T ½ ([4]; pH 8): 25.5 days; Natural Rate Constant ([4]; pH 4.0, 10 mM sodium acetate buffer): 0.0054 h⁻¹; Natural Rate Constant ([4]; pH 5.3, 10 mM sodium acetate buffer): 0.0017 h⁻¹; decomposition ([4]; pH 5.3 to 8.0, 37° C., over the seven day period): less than 20%; Natural Rate Constant ([4]; pH 6.7, potassium phosphate buffer): 0.0010 h⁻¹; Natural Rate Constant ([4]; pH 8.0, potassium phosphate buffer): 0.0011 h⁻¹; half-life [5]: 0.00833 days
CO[C@@H]1[C@H](O)CC[C@]2(CO2)[C@H]1[C@@]1(C)O[C@@H]1CC=C(C)C [Fumagillol]		30.1 ng/mL	1.59	45.8 ng/mL	18.9 ng/mL	
